Assay results as given in patent US9950987B2, “Aspirin derivatives and uses thereof” (North Carolina Agricultural and Technical State University, priority 2012, dated 2018).
Entries after “also recorded” stand apart in the source; their conditions may differ.

Legend:
[1] = test system: HT-29 human colon cancer cells; test: MTT growth inhibition assay, HT-29; assay type: cell-based; conditions: 48 h, relative to control
Procedure: (§1) The effects of the aspirin-stilbene derivative conjugates compared to standards were evaluated based on the inhibition of growth of HCT-116 and HT-29 human colon cancer cells. Cells were plated in 96-well plates in growth medium with 10% FBS. After 24 h, the medium was replaced with fresh medium containing test agent with desired final concentration (20, 30, 40, 50, and 60 μM), and the cells were incubated for 48 h. Viable cells were analyzed using the MTT assay, and the results are shown (FIG. 1) relative to control. Each value represents the mean±S.D. (n=8). FIG. 1, Panel A summarizes the results for aspirin (As), Res, RAS, RAS-1, and the combination of resveratrol and aspirin (Res+As). […] FIG. 1, Panel B summarizes the results for As, MRes, MRAS and the combination of MRes and aspirin (MRes+As). […] FIG. 1, Panel C summarizes the results for As, Pt, PAS, and the combination of pterostilbene and aspirin (Pt+As).
(§2) The effects of As, 6-shogaol (6-s), SAS and the combination of 6-shogaol and aspirin (6-s+As) on the growth of HCT-116 and HT-29 human colon cancer cells and H1299 human lung cancer cells were measured. Cells were plated in 96-well plates in growth medium with 10% FBS. After 24 h, the medium was replaced with fresh medium containing test agent with desired final concentration (5, 7.5, 10, 15, and 20 μM), and the cells were incubated for 48 h. Viable cells were analyzed using the MTT assay, and the results are shown relative to control (FIG. 2).
as §2, with “6-gingerol (6g), GAS,” for “6-shogaol (6-s), SAS”, “6-gingerol” for “6-shogaol”, “(6g+As)” for “(6-s+As)”, “(20, 40, 60, 80,” for “(5, 7.5, 10, 15,”, “100” for “20”, “3).” for “2).”

[2] = test system: H1299 human lung cancer cells; test: MTT growth inhibition assay, H1299; assay type: cell-based; conditions: 48 h, relative to control
Procedure: as §2
as §2, with “6-gingerol (6g), GAS,” for “6-shogaol (6-s), SAS”, “6-gingerol” for “6-shogaol”, “(6g+As)” for “(6-s+As)”, “(20, 40, 60, 80,” for “(5, 7.5, 10, 15,”, “100” for “20”, “3).” for “2).”

[3] = test system: HCT-116 human colon cancer cells; test: MTT growth inhibition assay, HCT-116; assay type: cell-based; conditions: 48 h, relative to control
Procedure: as §1, §2
as §2, with “6-gingerol (6g), GAS,” for “6-shogaol (6-s), SAS”, “6-gingerol” for “6-shogaol”, “(6g+As)” for “(6-s+As)”, “(20, 40, 60, 80,” for “(5, 7.5, 10, 15,”, “100” for “20”, “3).” for “2).”

[4] = Urinary metabolic profile in mice (LC/MS); assay type: in vivo; conditions: oral gavage 200 mg/kg, 24 h urine, FIG. 5
Procedure: The metabolic profile of Pt using LC/MS 23 was investigated. PAS was administered to mice (n=5) by oral gavage (200 mg/kg), and urine samples were collected in metabolism cages for 24 h after administration of vehicle (control mice) or PAS. LC/MS methods were developed to analyze PAS, pterostilbene, and aspirin. LC chromatograms of urine samples collected from PAS-treated mice obtained using positive APCI-MS interface (FIG. 5): (A) before and (B) after enzymatic hydrolysis (treated with β-glucuronidase and sulfatase); using negative ESI-MS interface: (C) before and (D) after enzymatic hydrolysis.
PAS had the highest response under positive APCI/MS mode, and aspirin and salicylic acid had the highest response under negative ESI/MS mode. Both positive APCI/MS and negative ESI/MS modes are sensitive to pterostilbene. However, aspirin and salicylic acid are hardly detectable under positive APCI/MS mode, and PAS is not detectable under negative ESI/MS mode. Therefore, APCI/MS positive mode was used to analyze PAS, pterostilbene, and their metabolites, and ESI/MS negative mode was used to analyze aspirin, pterostilbene, and their metabolites.

[5] = test system: human colon cancer cells (HCT-116)
[6] = test system: human colon cancer cells (HT-29)

CCCCCC(O)CC(=O)CCc1ccc(OC(=O)c2ccccc2OC(C)=O)c(OC)c1 (stereo not shown) [GAS, 6-gingerol aspirinate]
growth inhibitory effect ([1]; 20, 40, 60, 80, 100 μM, FIG. 3): much stronger growth inhibitory effect than 6-gingerol and aspirin alone, as well as the combination of 6-gingerol and aspirin (1:1)
growth inhibitory effect ([2]; 20, 40, 60, 80, 100 μM, FIG. 3): much stronger growth inhibitory effect than 6-gingerol and aspirin alone, as well as the combination of 6-gingerol and aspirin (1:1)
growth inhibitory effect ([3]; 20, 40, 60, 80, 100 μM, FIG. 3): much stronger growth inhibitory effect than 6-gingerol and aspirin alone, as well as the combination of 6-gingerol and aspirin (1:1)

COc1cc(C=Cc2ccc(OC(=O)c3ccccc3OC(C)=O)cc2)cc(OC)c1 [PAS, pterostilbene aspirinate]
growth inhibitory effect ([1]; 20, 30, 40, 50, 60 μM, FIG. 1): weaker growth inhibitory effects than pterostilbene and the combination of pterostilbene and aspirin (1:1)
detection of parent compound or deacetylated metabolites in urine [4]: neither PAS nor its deacetylated metabolites were detected
hydrolysis in vivo (urinary metabolites) [4]: hydrolyzed in mice to generate metabolites of aspirin and pterostilbene
growth inhibitory effect ([3]; 20, 30, 40, 50, 60 μM, FIG. 1): weaker growth inhibitory effects than pterostilbene and the combination of pterostilbene and aspirin (1:1)

CC(=O)Oc1ccccc1C(=O)Oc1ccc(/C=C/c2cc(O)cc(O)c2)cc1 [RAS, 4′-aspirinated resveratrol]
growth inhibitory effect ([1]; 20, 30, 40, 50, 60 μM, FIG. 1): stronger growth inhibitory effect than resveratrol and aspirin alone, and stronger than the combination of resveratrol and aspirin (1:1); also recorded: much stronger growth inhibitory effects than RAS-1, MRAS, and PAS
growth inhibitory effect ([3]; 20, 30, 40, 50, 60 μM, FIG. 1): stronger growth inhibitory effect than resveratrol and aspirin alone, and stronger than the combination of resveratrol and aspirin (1:1); also recorded: much stronger growth inhibitory effects than RAS-1, MRAS, and PAS
hydrolysis in cells [5]: hydrolyzed in human colon cancer cells (HCT-116 and HT-29) to generate resveratrol and aspirin
hydrolysis in cells [6]: hydrolyzed in human colon cancer cells (HCT-116 and HT-29) to generate resveratrol and aspirin

CCCCC/C=C/C(=O)CCc1ccc(OC(=O)c2ccccc2OC(C)=O)c(OC)c1 [SAS, 6-shogaol aspirinate]
growth inhibitory effect ([1]; 5, 7.5, 10, 15, 20 μM, FIG. 2): stronger growth inhibitory effect than aspirin alone, but less effective than 6-shogaol alone and the combination of 6-shogaol and aspirin (1:1)
growth inhibitory effect ([2]; 5, 7.5, 10, 15, 20 μM, FIG. 2): stronger growth inhibitory effect than aspirin alone, but less effective than 6-shogaol alone and the combination of 6-shogaol and aspirin (1:1)
growth inhibitory effect ([3]; 5, 7.5, 10, 15, 20 μM, FIG. 2): stronger growth inhibitory effect than aspirin alone, but less effective than 6-shogaol alone and the combination of 6-shogaol and aspirin (1:1)

mono-methylated resveratrol aspirinate [MRAS]
growth inhibitory effect ([1]; 20, 30, 40, 50, 60 μM, FIG. 1): weaker growth inhibitory effects than MRes and the combination of MRes and aspirin (1:1)
growth inhibitory effect ([3]; 20, 30, 40, 50, 60 μM, FIG. 1): weaker growth inhibitory effects than MRes and the combination of MRes and aspirin (1:1)
